Source: the supplement of paper PMC10307832

Columns and labels:
Assay in all cases: relative viability (nuclei count vs DMSO), 5 days (fraction); higher = more cells survive
Tipifarnib + Palbociclib = compound: Cn1cncc1[C@@](N)(c1ccc(Cl)cc1)c1ccc2c(c1)c(-c1cccc(Cl)c1)cc(=O)n2C [Tipifarnib] + CC(=O)c1c(C)c2cnc(Nc3ccc(N4CCNCC4)cn3)nc2n(C2CCCC2)c1=O [Palbociclib] (partner 0.5 µM)
Summary of the method: (§1)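 One day after seeding in 1536-well plates, lung cancer cell lines were dosed by pin tool. Dosing was either single-drug or a fixed anchor-drug dose plus five library-drug doses (not always all listed) in √10 steps. After 5 days, nuclei were stained in one fix-and-stain step and counted on 4× images, and relative viability is the nuclei count of treated wells over that of vehicle wells, given as the median of duplicate plates.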

Tipifarnib + Crizotinib = compound: Cn1cncc1[C@@](N)(c1ccc(Cl)cc1)c1ccc2c(c1)c(-c1cccc(Cl)c1)cc(=O)n2C [Tipifarnib] + C[C@@H](Oc1cc(-c2cnn(C3CCNCC3)c2)cnc1N)c1c(Cl)ccc(F)c1Cl [Crizotinib] (partner 1 µM)
Summary of the method: as §1

Tipifarnib + AZD7762 = compound: Cn1cncc1[C@@](N)(c1ccc(Cl)cc1)c1ccc2c(c1)c(-c1cccc(Cl)c1)cc(=O)n2C [Tipifarnib] + NC(=O)Nc1cc(-c2cccc(F)c2)sc1C(=O)N[C@H]1CCCNC1 [AZD7762] (partner 0.2 µM)
Summary of the method: as §1

Tipifarnib + Vorinostat = compound: Cn1cncc1[C@@](N)(c1ccc(Cl)cc1)c1ccc2c(c1)c(-c1cccc(Cl)c1)cc(=O)n2C [Tipifarnib] + O=C(CCCCCCC(=O)Nc1ccccc1)NO [Vorinostat] (partner 1 µM)
Summary of the method: as §1

| Cell Line | relative viability (Tipifarnib + Palbociclib; first compound 0.01 µM) | relative viability (Tipifarnib + Palbociclib; first compound 0.03162 µM) | relative viability (Tipifarnib + Palbociclib; first compound 0.1 µM) | relative viability (Tipifarnib + Palbociclib; first compound 0.3162 µM) | relative viability (Tipifarnib + Palbociclib; first compound 1 µM) | relative viability (Tipifarnib + Crizotinib; first compound 0.01 µM) | relative viability (Tipifarnib + Crizotinib; first compound 0.03162 µM) | relative viability (Tipifarnib + Crizotinib; first compound 0.1 µM) | relative viability (Tipifarnib + Crizotinib; first compound 0.3162 µM) | relative viability (Tipifarnib + Crizotinib; first compound 1 µM) | relative viability (Tipifarnib + AZD7762; first compound 0.01 µM) | relative viability (Tipifarnib + AZD7762; first compound 0.03162 µM) | relative viability (Tipifarnib + AZD7762; first compound 0.1 µM) | relative viability (Tipifarnib + AZD7762; first compound 0.3162 µM) | relative viability (Tipifarnib + AZD7762; first compound 1 µM) | relative viability (Tipifarnib + Vorinostat; first compound 0.01 µM) | relative viability (Tipifarnib + Vorinostat; first compound 0.03162 µM) | relative viability (Tipifarnib + Vorinostat; first compound 0.1 µM) | relative viability (Tipifarnib + Vorinostat; first compound 0.3162 µM) | relative viability (Tipifarnib + Vorinostat; first compound 1 µM) |
| --- | --- | --- | --- | --- | --- | --- | --- | --- | --- | --- | --- | --- | --- | --- | --- | --- | --- | --- | --- | --- |
| NCI-H650 | 0.368 | 0.321 | 0.379 | 0.269 | 0.233 | 0.773 | 0.679 | 0.442 | 0.437 | 0.345 | 1.39 | 1.17 | 0.77 | 0.667 | 0.429 | 0.366 | 0.325 | 0.346 | 0.249 | 0.189 |
| NCI-H727 | 0.693 | 0.596 | 0.599 | 0.652 | 0.615 | 0.958 | 0.838 | 0.746 | 0.695 | 0.675 | 0.613 | 0.608 | 0.519 | 0.504 | 0.571 | 1.15 | 1.22 | 1.18 | 1.32 | 0.91 |
| NCI-H838 | 0.223 | 0.206 | 0.214 | 0.187 | 0.195 | 0.694 | 0.538 | 0.434 | 0.434 | 0.433 | 1.01 | 0.965 | 0.905 | 0.836 | 0.851 | 0.665 | 0.646 | 0.606 | 0.568 | 0.588 |
| NCI-H1355 | 0.399 | 0.398 | 0.351 | 0.325 | 0.322 | 1.19 | 1.05 | 0.764 | 0.64 | 0.673 | 0.833 | 0.707 | 0.517 | 0.473 | 0.478 | 0.625 | 0.544 | 0.409 | 0.466 | 0.301 |
| NCI-H1437 | 0.327 | 0.357 | 0.336 | 0.288 | 0.303 | 0.978 | 0.959 | 1 | 0.763 | 0.894 | 1.12 | 1.14 | 1.1 | 1.06 | 1.11 | 0.837 | 0.796 | 0.747 | 0.646 | 0.601 |
| NCI-H1651 | 0.502 | 0.52 | 0.544 | 0.502 | 0.511 | 0.951 | 0.856 | 0.893 | 0.789 | 0.843 | 0.536 | 0.467 | 0.524 | 0.44 | 0.363 | 0.545 | 0.54 | 0.537 | 0.507 | 0.335 |
| NCI-H1666 | 0.684 | 0.676 | 0.695 | 0.626 | 0.663 | 0.958 | 0.816 | 0.761 | 0.626 | 0.843 | 0.892 | 0.807 | 0.794 | 0.661 | 0.554 | 1.05 | 0.874 | 1.02 | 0.883 | 0.878 |
| NCI-H1734 | 0.353 | 0.327 | 0.323 | 0.298 | 0.261 | 0.802 | 0.589 | 0.425 | 0.444 | 0.352 | 0.537 | 0.46 | 0.403 | 0.352 | 0.257 | 0.791 | 0.553 | 0.534 | 0.368 | 0.364 |
| NCI-H1755 | 0.464 | 0.471 | 0.463 | 0.445 | 0.465 | 0.83 | 0.79 | 0.818 | 0.742 | 0.688 | 0.411 | 0.453 | 0.416 | 0.365 | 0.395 | 0.75 | 0.764 | 0.781 | 0.739 | 0.596 |
| NCI-H1915 | 0.317 | 0.318 | 0.281 | 0.218 | 0.241 | 0.7 | 0.684 | 0.431 | 0.405 | 0.425 | 0.643 | 0.583 | 0.398 | 0.332 | 0.319 | 0.544 | 0.43 | 0.373 | 0.305 | 0.336 |
| NCI-H1944 | 0.324 | 0.31 | 0.288 | 0.28 | 0.273 | 1.12 | 0.92 | 0.624 | 0.568 | 0.609 | 0.515 | 0.435 | 0.295 | 0.299 | 0.306 | 0.509 | 0.382 | 0.309 | 0.289 | 0.285 |
